# From patent publication US20260022142A1, “MACROCYCLIC IMMUNOMODULATORS” (Bristol-Myers Squibb Company, priority 2022, published 2026)
# Bridge positions count the residues as written; N and C are the ends. Square brackets hold non-standard residues; d marks the D form. Peptide text beside a SMILES is read from it. * marks the point of attachment. ξ: configuration not given here. Phe(3-CF3) = N[C@@H](Cc1cccc(C(F)(F)F)c1)C(=O)O; Phe(3-CONH2) = NC(=O)c1cccc(C[C@H](N)C(=O)O)c1; Phe(4-COOH) = N[C@@H](Cc1ccc(C(=O)O)cc1)C(=O)O; Bip = N[CH](Cc1ccc(-c2ccccc2)cc1)C(=O)O; Phe(4-NH2) = Nc1ccc(C[C@H](N)C(=O)O)cc1; Phe(3-Me) = Cc1cccc(C[C@H](N)C(=O)O)c1; NH(CH2)12COOH = O=C(O)CCCCCCCCCCCCN*; Val(3-OH) = CC(C)(O)[C@H](N)C(=O)O; hArg = N=C(N)NCCCC[C@H](N)C(=O)O; Cha = N[CH](CC1CCCCC1)C(=O)O; Ile(3ξ) = CCC(C)[C@H](N)C(=O)O; 4Pal = N[CH](Cc1ccncc1)C(=O)O; Thr(3ξ) = CC(O)[C@H](N)C(=O)O; PEG4 = NCCOCCOCCOCCOCCC(=O)O; 12Ado = NCCCCCCCCCCCC(=O)O; Carboxymethyl = O=C(O)C*; Orn = NCCC[CH](N)C(=O)O; Aun = NCCCCCCCCCCC(=O)O; Dab = NCC[CH](N)C(=O)O; Nva = CCC[C@H](N)C(=O)O; Dap = NC[C@H](N)C(=O)O; AEEA = NCCOCCOCC(=O)O; ξC = NC(CS)C(=O)O
# Target: T1, PD-1/PD-L1 interaction (PE-labeled human PD-L1-Ig binding to Jurkat cell line over-expressing human PD-1) (Homo sapiens, UniProt Q15116)
# T1 construct: expressed in transfected cells; host or cells: Jurkat
# T1 sequence (Q15116 25-288): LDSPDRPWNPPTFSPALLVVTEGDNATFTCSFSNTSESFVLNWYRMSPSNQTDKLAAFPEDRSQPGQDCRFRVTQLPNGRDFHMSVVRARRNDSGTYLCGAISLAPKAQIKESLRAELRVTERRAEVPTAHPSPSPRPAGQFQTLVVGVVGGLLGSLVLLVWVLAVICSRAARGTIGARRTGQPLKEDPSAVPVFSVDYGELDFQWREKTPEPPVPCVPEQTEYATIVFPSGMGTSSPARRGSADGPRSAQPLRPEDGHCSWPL
# Assay: Jurkat-PD-1 Cell Binding High-Content Screening Assay (CBA)
# Assay type: cell-based
# Conditions: Jurkat cell line over-expressing human PD-1; PE-labeled PD-L1-Ig 20 nM final; read-out: Jurkat hPD1-PDL1 IC50
# Summary of the method: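 First, compound is added to PD-1-expressing Jurkat cells in serum-containing DMEM and left 2 h at 37° C. Next, PE-conjugated PD-L1-Ig is introduced at 20 nM final concentration for 1 hour. Finally, cells are fixed in 4% paraformaldehyde with Hoechst 33342, washed and imaged.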
row,Structure (SMILES),IC50 [nM]
1,CC(C)C[C@H]1NC(=O)[C@H](CCN)NC(=O)[C@H](C(C)C)NC(=O)[C@H](Cc2ccc(-c3ccccc3)cc2)NC(=O)[C@H](C(C)C)NC(=O)[C@H](Cc2c[nH]c3ccccc23)NC(=O)[C@H](CC(=O)O)NC(=O)[C@H](Cc2ccc(OCC(=O)O)cc2)NC(=O)[C@H](CCCCNC(=N)N)NC(=O)CSC[C@@H](C(=O)NCCOCCOCC(=O)NCCCCCCCCCCC(=O)O)NC(=O)[C@H](CCCN)NC(=O)[C@H](C(C)C)NC(=O)[C@H](CC2CCCCC2)NC(=O)[C@H](CCN)NC1=O [Compound 3265] ({CH2CO}-[hArg]Y(Carboxymethyl)DWV[Bip]V[Dab][dL][Dab][Cha]V[Orn]C[AEEA][Aun]-OH; thioether N-14),7.2
2,CC(C)C[C@H]1NC(=O)[C@H](CCCN)NC(=O)[C@H](C(C)C)NC(=O)[C@H](Cc2ccc(-c3ccccc3)cc2)NC(=O)[C@H](C(C)C)NC(=O)[C@H](Cc2c[nH]c3ccccc23)NC(=O)[C@H](CC(=O)O)NC(=O)[C@H](Cc2ccc(OCC(=O)O)cc2)NC(=O)[C@H](CN)NC(=O)CSC[C@@H](C(=O)N[C@@H](CCCN)C(=O)NCCCCCCCCCCC(=O)O)NC(=O)[C@H](CCC(N)=O)NC(=O)[C@H](C(C)C)NC(=O)[C@H](CC2CCCCC2)NC(=O)[C@H](Cc2c[nH]cn2)NC1=O [Compound 2794] ({CH2CO}-[Dap]Y(Carboxymethyl)DWV[Bip]V[Orn][dL]H[Cha]VQC[Orn][Aun]-OH; thioether N-14),28
3,CCC(C)[C@@H]1NC(=O)[C@H](CC2CCCCC2)NC(=O)[C@H](CCN)NC(=O)[C@@H](CC(C)C)NC(=O)[C@H](CCCN)NC(=O)[C@H](C(C)CC)NC(=O)[C@H](Cc2ccc(-c3ccccc3)cc2)NC(=O)[C@H](CC(C)C)NC(=O)[C@H](Cc2c[nH]c3ccccc23)NC(=O)[C@H](CC(=O)O)NC(=O)[C@H](Cc2ccc(OCC(=O)O)cc2)NC(=O)[C@H](Cc2cccc(C(N)=O)c2)NC(=O)CSC[C@@H](C(=O)N[C@@H](CC(N)=O)C(=O)NCCOCCOCC(=O)NCCCCCCCCCCC(=O)O)NC(=O)[C@H](CO)NC1=O (stereo partly drawn) [Compound 3116] ({CH2CO}-[Phe(3-CONH2)]Y(Carboxymethyl)DWL[Bip][Ile(3ξ)][Orn][dL][Dab][Cha][Ile(3ξ)]SCN[AEEA][Aun]-OH; thioether N-14),43.4
4,Cc1cccc(C[C@@H]2NC(=O)[C@H](CC(=O)O)NC(=O)[C@H](Cc3ccc(OCC(=O)O)cc3)NC(=O)[C@H](CN)NC(=O)CSC[C@@H](C(=O)N[C@@H](CCN)C(=O)NCCOCCOCC(=O)NCCCCCCCCCCC(=O)O)NC(=O)[C@H](CCCNC(=N)N)NC(=O)[C@H](C(C)C)NC(=O)[C@H](CC3CCCCC3)NC(=O)[C@H](CCN)NC(=O)[C@@H](CC(C)C)NC(=O)[C@H](CCCN)NC(=O)[C@H](CCC(=O)O)NC(=O)[C@H](Cc3ccc(-c4ccccc4)cc3)NC(=O)[C@H](C(C)C)NC2=O)c1 [Compound 2662] ({CH2CO}-[Dap]Y(Carboxymethyl)D[Phe(3-Me)]V[Bip]E[Orn][dL][Dab][Cha]VRC[Dab][AEEA][Aun]-OH; thioether N-14),11
5,CC(=O)NCCCC[C@@H]1NC(=O)[C@H](Cc2cccc(C)c2)NC(=O)[C@H](CC(=O)O)NC(=O)[C@H](Cc2ccc(OCC(=O)O)cc2)NC(=O)[C@H](Cc2ccc(NC(C)=O)cc2)NC(=O)CSC[C@@H](C(=O)N[C@@H](CCN)C(=O)NCCCCCCCCCCC(=O)O)NC(=O)[C@H](C(C)O)NC(=O)[C@H](C(C)C)NC(=O)[C@H](CC2CCCCC2)NC(=O)[C@H](CCN)NC(=O)[C@@H](CC(C)C)NC(=O)[C@H](CCCN)NC(=O)[C@H](CCCCNC(C)=O)NC(=O)[C@H](Cc2ccc(-c3ccccc3)cc2)NC1=O (stereo partly drawn) [Compound 3602] ({CH2CO}-[Phe(4-NH2)](Ac)Y(Carboxymethyl)D[Phe(3-Me)]K(Ac)[Bip]K(Ac)[Orn][dL][Dab][Cha]V[Thr(3ξ)]C[Dab][Aun]-OH; thioether N-14),23.1
6,Cc1cccc(C[C@@H]2NC(=O)[C@H](CC(=O)O)NC(=O)[C@H](Cc3ccc(OCC(=O)O)cc3)NC(=O)[C@H](CCN)NC(=O)CSC[C@@H](C(=O)N[C@@H](CCN)C(=O)NCCOCCOCC(=O)NCCCCCCCCCCCCC(=O)O)NC(=O)[C@H](CO)NC(=O)[C@H](C(C)(C)O)NC(=O)[C@H](CC3CCCCC3)NC(=O)[C@H](Cc3c[nH]cn3)NC(=O)[C@@H](CC(C)C)NC(=O)[C@H](CCCN)NC(=O)[C@H](Cc3ccc(OCC(=O)O)cc3)NC(=O)[C@H](Cc3ccc(-c4ccccc4)cc3)NC(=O)[C@H](Cc3ccc(OCC(=O)O)cc3)NC2=O)c1 [Compound 2875] ({CH2CO}-[Dab]Y(Carboxymethyl)D[Phe(3-Me)]Y(Carboxymethyl)[Bip]Y(Carboxymethyl)[Orn][dL]H[Cha][Val(3-OH)]SC[Dab][AEEA]-{NH(CH2)12COOH}; thioether N-14),8.3

# Further compounds by falling IC50, results first:
row,IC50 [nM],Structure (SMILES)
1,78.1,Cc1cccc(C[C@@H]2NC(=O)[C@H](CC(=O)O)NC(=O)[C@H](Cc3ccc(OCC(=O)O)cc3)NC(=O)[C@H](CCCNC(=N)N)NC(=O)CSC[C@@H](C(=O)N[C@H](CC(N)=O)C(=O)NCCCCCCCCCCC(=O)O)NC(=O)[C@H](CCC(N)=O)NC(=O)[C@H](C(C)O)NC(=O)[C@H](CC3CCCCC3)NC(=O)[C@H](CCN)NC(=O)[C@@H](CC(C)C)NC(=O)[C@H](CCCN)NC(=O)[C@H](Cc3ccc(OCC(=O)O)cc3)NC(=O)[C@H](Cc3ccc(-c4ccccc4)cc3)NC(=O)[C@H](Cc3ccc(OCC(=O)O)cc3)NC2=O)c1 (stereo partly drawn) [Compound 3529] ({CH2CO}-RY(Carboxymethyl)D[Phe(3-Me)]Y(Carboxymethyl)[Bip]Y(Carboxymethyl)[Orn][dL][Dab][Cha][Thr(3ξ)]QC[dN][Aun]-OH; thioether N-14)
2,44.6,CC(C)C[C@H]1NC(=O)[C@H](CCCN)NC(=O)[C@H](C(C)C)NC(=O)[C@H](Cc2ccc(-c3ccccc3)cc2)NC(=O)[C@H](C(C)C)NC(=O)[C@H](Cc2c[nH]c3ccccc23)NC(=O)[C@H](CC(=O)O)NC(=O)[C@H](Cc2ccc(OCC(=O)O)cc2)NC(=O)[C@H](CCCCNC(=N)N)NC(=O)CSC[C@@H](C(=O)N[C@@H](CCCCN)C(=O)NCCCCCCCCCCCC(=O)O)NC(=O)[C@H](CO)NC(=O)[C@H](C(C)C)NC(=O)[C@H](CC2CCCCC2)NC(=O)[C@H](Cc2cnc[nH]2)NC1=O [Compound 3155] ({CH2CO}-[hArg]Y(Carboxymethyl)DWV[Bip]V[Orn][dL]H[Cha]VSCK[12Ado]-OH; thioether N-14)
3,39.2,CCC(C)C1NC(=O)C(Cc2ccc(-c3ccccc3)cc2)NC(=O)C(CC(C)C)NC(=O)C(Cc2c[nH]c3ccccc23)NC(=O)C(CC(=O)O)NC(=O)C(Cc2ccc(OCC(=O)O)cc2)NC(=O)C(Cc2ccncc2)NC(=O)CSCC(C(=O)NCCOCCOCC(=O)NC(CCCN)C(=O)NCCCCCCCCCCC(=O)O)NC(=O)C(C(C)O)NC(=O)C(C(C)C)NC(=O)C(CC2CCCCC2)NC(=O)C(CCN)NC(=O)C(CC(C)C)NC(=O)C(CCCN)NC1=O (stereo not shown) [Compound 3089] ({CH2CO}-[4Pal]Y(Carboxymethyl)DWL[Bip]I[Orn]L[Dab][Cha]VTC[AEEA][Orn][Aun]-OH; thioether N-14; configuration not given here)
4,24.1,CCC[C@@H]1NC(=O)CSC[C@@H](C(=O)N[C@@H](CCN)C(=O)NCCOCCOCCOCCOCCC(=O)NCCCCCCCCCCCCC(=O)O)NC(=O)[C@H](CO)NC(=O)[C@H](C(C)(C)O)NC(=O)[C@H](CC2CCCCC2)NC(=O)[C@H](CCN)NC(=O)[C@@H](CC(C)C)NC(=O)[C@H](CCCN)NC(=O)[C@H](Cc2ccc(OCC(=O)O)cc2)NC(=O)[C@H](Cc2ccc(-c3ccccc3)cc2)NC(=O)[C@H](Cc2ccc(OCC(=O)O)cc2)NC(=O)[C@H](Cc2cccc(C(F)(F)F)c2)NC(=O)[C@H](CC(=O)O)NC(=O)[C@H](Cc2ccc(C(=O)O)cc2)NC1=O [Compound 2901] ({CH2CO}-[Nva][Phe(4-COOH)]D[Phe(3-CF3)]Y(Carboxymethyl)[Bip]Y(Carboxymethyl)[Orn][dL][Dab][Cha][Val(3-OH)]SC[Dab][PEG4]-{NH(CH2)12COOH}; thioether N-14)
5,22.2,CC(C)C[C@H]1NC(=O)[C@H](CCCN)NC(=O)[C@H](CCC(=O)O)NC(=O)[C@H](Cc2ccc(-c3ccccc3)cc2)NC(=O)[C@H](C(C)C)NC(=O)[C@H](Cc2c[nH]c3ccccc23)NC(=O)[C@H](CC(=O)O)NC(=O)[C@H](Cc2ccc(OCC(=O)O)cc2)NC(=O)[C@H](CN)NC(=O)CSCC(C(=O)NCCOCCOCC(=O)NCCCCCCCCCCC(=O)O)NC(=O)[C@H](CCCCN)NC(=O)[C@H](C(C)C)NC(=O)[C@H](CC2CCCCC2)NC(=O)[C@H](CCN)NC1=O (stereo partly drawn) [Compound 2665] ({CH2CO}-[Dap]Y(Carboxymethyl)DWV[Bip]E[Orn][dL][Dab][Cha]VK[ξC][AEEA][Aun]-OH; thioether N-14)
6,17.3,Cc1cccc(C[C@@H]2NC(=O)[C@H](CC(=O)O)NC(=O)[C@H](Cc3ccc(OCC(=O)O)cc3)NC(=O)[C@H](CCCCNC(=N)N)NC(=O)CSC[C@@H](C(=O)N[C@@H](CCCN)C(=O)N[C@@H](CO)C(=O)NCCCCCCCCCCCC(=O)O)NC(=O)[C@H](CO)NC(=O)[C@H](C(C)C)NC(=O)[C@H](CC3CCCCC3)NC(=O)[C@H](CCN)NC(=O)[C@@H](CC(C)C)NC(=O)[C@H](CCCN)NC(=O)[C@H](CCCNC(=N)N)NC(=O)[C@H](Cc3ccc(-c4ccccc4)cc3)NC(=O)[C@H](C(C)C)NC2=O)c1 [Compound 3576] ({CH2CO}-[hArg]Y(Carboxymethyl)D[Phe(3-Me)]V[Bip]R[Orn][dL][Dab][Cha]VSC[Orn]S[12Ado]-OH; thioether N-14)
7,16.1,CC(C)C[C@H]1NC(=O)[C@H](CCCN)NC(=O)[C@H](C(C)C)NC(=O)[C@H](Cc2ccc(-c3ccccc3)cc2)NC(=O)[C@H](C(C)C)NC(=O)[C@H](Cc2c[nH]c3ccccc23)NC(=O)[C@H](CC(=O)O)NC(=O)[C@H](Cc2ccc(OCC(=O)O)cc2)NC(=O)[C@H](Cc2c[nH]cn2)NC(=O)CSC[C@@H](C(=O)N[C@H](C)C(=O)N[C@@H](CCC(=O)O)C(=O)NCCCCCCCCCCC(=O)O)NC(=O)[C@H]([C@@H](C)O)NC(=O)[C@H](C(C)C)NC(=O)[C@H](CC2CCCCC2)NC(=O)[C@H](CCN)NC1=O [Compound 2785] ({CH2CO}-HY(Carboxymethyl)DWV[Bip]V[Orn][dL][Dab][Cha]VTC[dA]E[Aun]-OH; thioether N-14)
